Assay results from patent US10294202B2, “Pyrrolidinones as herbicides” (FMC Corporation, priority 2013, dated 2019).
Read-outs that look alike come from different tables or passages of the source.

Legend:
kochia = experiment: Test A pre-/postemergence herbicide test; assay type: in vivo, Kochia scoparia
Summary of the method: (§1)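 Approximately 10 days after treatment in the greenhouse, plants were compared with untreated controls and given a 0–100 visual injury rating. Applications: preemergence directed soil spray; postemergence on 2–10 cm plants at the one- to two-leaf stage.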

ragweed = experiment: Test A pre-/postemergence herbicide test; assay type: in vivo, Ambrosia elatior
Summary of the method: as §1

ryegrass, Italian = experiment: Test A pre-/postemergence herbicide test; assay type: in vivo, Lolium multiflorum
Summary of the method: as §1

galium = experiment: Test A postemergence herbicide test; assay type: in vivo, Galium aparine
Summary of the method: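 Injury was rated visually about 10 days after treatment on a 0 (no effect) to 100 (complete control) scale, compared with untreated plants. Test chemicals were sprayed postemergence onto greenhouse plants 2–10 cm high at one to two leaves, grown in a loam–sand blend.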

ducksalad = experiment: Test C flooded paddy test; assay type: in vivo, Heteranthera limosa; conditions: Flood
Summary of the method: (§2)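 2-leaf stage; flood 3 cm over soil; compound into paddy water; depth held; greenhouse 13–15 d; visual % control vs untreated (0 = none, 100 = complete); "-" = not tested.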

barnyardgrass = experiment: Test C flooded paddy test; assay type: in vivo, Echinochloa crus-galli; conditions: Flood
Summary of the method: as §2

crabgrass, large = experiment: Test A pre-/postemergence herbicide test; assay type: in vivo, Digitaria sanguinalis; conditions: for pest or weed control at 500 g/ha: 500 g ai/ha
Summary of the method: as §1

morningglory = experiment: Test A pre-/postemergence herbicide test; assay type: in vivo, Ipomoea spp.; conditions: for pest or weed control at 500 g/ha: 500 g ai/ha
Summary of the method: as §1

velvetleaf = experiment: Test A pre-/postemergence herbicide test; assay type: in vivo, Abutilon theophrasti; conditions: for pest or weed control at 500 g/ha: 500 g ai/ha
Summary of the method: as §1

[1] = 125 g ai/ha, visual rating, 0 to 100 scale, 0 no effect, 100 complete control, approximately 10 days, preemergence
[2] = Postemergence, 125 g ai/ha, 0 to 100 scale, 0 no effect, 100 complete control
[3] = preemergence, 500 g ai/ha, 0 to 100 scale
[4] = 62 g ai/ha, scale of 0 to 100 where 0 is no effect and 100 is complete control, 13 to 15 days
[5] = 125 g ai/ha, scale of 0 to 100 where 0 is no effect and 100 is complete control, 13 to 15 days
[6] = Postemergence, 125 g ai/ha, 0 to 100 scale, 0 is no effect, 100 is complete control
[7] = preemergence, 500 g ai/ha, 0 to 100 scale, 0 is no effect and 100 is complete control
[8] = 250 g ai/ha, scale of 0 to 100 where 0 is no effect and 100 is complete control, 13 to 15 days
[9] = Preemergence, 125 g ai/ha, visual rating on 0 to 100 scale (0 no effect, 100 complete control)
[10] = 31 g ai/ha, scale of 0 to 100 where 0 is no effect and 100 is complete control, 13 to 15 days
[11] = Postemergence, 125 g ai/ha, visual rating on 0 to 100 scale (0 no effect, 100 complete control), approx. 10 days
[12] = Postemergence, 500 g ai/ha, 0 to 100 scale (0 no effect, 100 complete control)
[13] = Preemergence, 125 g ai/ha, 0 to 100 scale where 0 is no effect and 100 is complete control
[14] = Preemergence, 500 g ai/ha, visual rating on 0 to 100 scale (0 no effect, 100 complete control)
[15] = 125 g ai/ha, visual rating on 0 to 100 scale (0 no effect, 100 complete control), approx. 10 days
[16] = 500 g ai/ha, 0 to 100 scale (0 no effect, 100 complete control)

Structure (SMILES) | Plant response rating, Kochia (kochia; [1]) | Kochia plant response rating (0 to 100 scale, 0 is no effect, 100 is complete control) (kochia; Postemergence, 500 g ai/ha) | Plant response rating, Ragweed (ragweed; [1]) | Ragweed plant response rating (0 to 100 scale, 0 is no effect, 100 is complete control) (ragweed; Postemergence, 500 g ai/ha) | Plant response rating, Ryegrass, Italian (ryegrass, Italian; [1]) | Ryegrass, Italian plant response rating (0 to 100 scale, 0 is no effect, 100 is complete control) (ryegrass, Italian; Postemergence, 500 g ai/ha) | Galium plant response rating (0 to 100 scale, 0 is no effect, 100 is complete control) (galium; 500 g ai/ha) | Plant response rating, Ducksalad (ducksalad; [4]) | Plant response rating, Ducksalad (ducksalad; [5]) | Plant response rating, Ducksalad (ducksalad; 250 g ai/ha, scale 0 to 100) | Plant response rating, Ducksalad (ducksalad; 500 g ai/ha, scale 0 to 100) | Plant response rating, Barnyardgrass (barnyardgrass; [4]) | Plant response rating, Barnyardgrass (barnyardgrass; [5]) | Plant response rating, Barnyardgrass (barnyardgrass; 250 g ai/ha, scale 0 to 100) | Plant response rating, Barnyardgrass (barnyardgrass; 500 g ai/ha, scale 0 to 100) | Plant response rating, Ducksalad (ducksalad; [8]) | Plant response rating, Barnyardgrass (barnyardgrass; [8]) | Plant response rating, Ducksalad (ducksalad; [10]) | Plant response rating, Barnyardgrass (barnyardgrass; [10]) | Plant response rating, Kochia (kochia; [11]) | further results
O=C1NCC(c2ccc(F)cc2)C1C(=O)Nc1ccc(F)c(F)c1F (racemic) [Compound 120] | 60 | 70 | 60 | 50 | 30 | 50 | 60 | 100 | 100 | 100 | 100 | 40 | 50 | 60 | 75 | – | – | – | – | – | Plant response rating, Kochia (kochia; [2]): 60; Plant response rating, Kochia (kochia; [3]): 80; Plant response rating, Ragweed (ragweed; [2]): 30; Plant response rating, Ragweed (ragweed; [3]): 80; Plant response rating, Ryegrass, Italian (ryegrass, Italian; [2]): 30; Plant response rating, Ryegrass, Italian (ryegrass, Italian; [3]): 50; Plant response rating, Galium (galium; 125 g ai/ha, 0 to 100 scale, 0 no effect, 100 complete control): 50
O=C1NCC(c2cccc(C(F)F)c2)C1C(=O)Nc1ccccc1F (racemic) [Compound 210] | 0 | 60 | 0 | 0 | 0 | 50 | 60 | – | 0 | – | 100 | – | 0 | – | 70 | 80 | 45 | – | – | – | Plant response rating, Kochia (kochia; [6]): 20; Plant response rating, Kochia (kochia; [7]): 30; Plant response rating, Ragweed (ragweed; [6]): 0; Plant response rating, Ragweed (ragweed; [7]): 30; Plant response rating, Ryegrass, Italian (ryegrass, Italian; [6]): 0; Plant response rating, Ryegrass, Italian (ryegrass, Italian; [7]): 50; Plant response rating, Galium (galium; 125 g ai/ha, 0 to 100 scale, 0 is no effect, 100 is complete control): 30; Plant response rating, Ducksalad (ducksalad; 1000 g ai/ha, scale 0 to 100): 100; Plant response rating, Barnyardgrass (barnyardgrass; 1000 g ai/ha, scale 0 to 100): 75
O=C1NCC(c2ccccc2)C1(Br)C(=O)Nc1ccccc1F (centres unmarked) [Compound 93, 3-bromo-N-(2-fluorophenyl)-2-oxo-4-phenyl-3-pyrrolidinecarboxamide] | – | – | – | – | – | – | – | 0 | 0 | 85 | – | 0 | 0 | 40 | – | – | – | 0 | 0 | – | pest or weed control at 125 g/ha (crabgrass, large; Digitaria sanguinalis, post-emergence, 240 h, Postemergence, 125 g ai/ha, 0 to 100 scale, 0 no effect, 100 complete control, read-out: Plant response rating, Crabgrass, Large): 50%; pest or weed control at 500 g/ha (crabgrass, large; Digitaria sanguinalis, post-emergence, 240 h, Postemergence, 0 to 100 scale (0 no effect, 100 complete control), read-out: Plant response rating, Crabgrass, Large): 80%; pest or weed control at 500 g/ha (crabgrass, large; Digitaria sanguinalis, pre-emergence, 240 h, preemergence, 0 to 100 scale, read-out: Plant response rating, Crabgrass, Large): 90%; Crabgrass, Large plant response rating (crabgrass, large; [9]): 90; pest or weed control at 125 g/ha (morningglory; Ipomoea, post-emergence, 240 h, Postemergence, 125 g ai/ha, 0 to 100 scale, 0 no effect, 100 complete control, read-out: Plant response rating, Morningglory): 0%; pest or weed control at 500 g/ha (morningglory; Ipomoea, post-emergence, 240 h, Postemergence, 0 to 100 scale (0 no effect, 100 complete control), read-out: Plant response rating, Morningglory): 0%; pest or weed control at 500 g/ha (morningglory; Ipomoea, pre-emergence, 240 h, preemergence, 0 to 100 scale, read-out: Plant response rating, Morningglory): 0%; Morningglory plant response rating (morningglory; [9]): 0; pest or weed control at 125 g/ha (velvetleaf; Abutilon theophrasti, post-emergence, 240 h, Postemergence, 125 g ai/ha, 0 to 100 scale, 0 no effect, 100 complete control, read-out: Plant response rating, Velvetleaf): 0%; pest or weed control at 500 g/ha (velvetleaf; Abutilon theophrasti, post-emergence, 240 h, Postemergence, 0 to 100 scale (0 no effect, 100 complete control), read-out: Plant response rating, Velvetleaf): 0%; pest or weed control at 500 g/ha (velvetleaf; Abutilon theophrasti, pre-emergence, 240 h, preemergence, 0 to 100 scale, read-out: Plant response rating, Velvetleaf): 0%; Velvetleaf plant response rating (velvetleaf; [9]): 0
CN1CC(c2ccc(F)c(F)c2)C(C(=O)Nc2cccc(F)c2F)C1=O (centres unmarked) [Compound 303] | – | – | – | – | – | – | – | 60 | 70 | – | – | 20 | 60 | – | – | 100 | 70 | 50 | 0 | 50 | Plant response rating, Kochia (kochia; [12]): 80; Plant response rating, Kochia (kochia; [13]): 70; Kochia plant response rating (kochia; [14]): 80; Plant response rating, Ragweed (ragweed; [11]): 20; Plant response rating, Ragweed (ragweed; [12]): 40; Plant response rating, Ragweed (ragweed; [13]): 0; Plant response rating, Ryegrass, Italian (ryegrass, Italian; [11]): 40; Plant response rating, Ryegrass, Italian (ryegrass, Italian; [12]): 60; Plant response rating, Ryegrass, Italian (ryegrass, Italian; [13]): 30; Ryegrass, Italian plant response rating (ryegrass, Italian; [14]): 40; Plant response rating, Galium (galium; [15]): 60; Plant response rating, Galium (galium; [16]): 70
CC(C)c1cccc(C2CNC(=O)C2C(=O)Nc2ccccc2F)c1 (centres unmarked) [Compound 318] | – | – | – | – | – | – | – | 60 | 100 | – | – | 30 | 60 | – | – | 100 | 70 | 50 | 20 | 20 | Plant response rating, Kochia (kochia; [12]): 30; Plant response rating, Kochia (kochia; [13]): 20; Kochia plant response rating (kochia; [14]): 70; Plant response rating, Ragweed (ragweed; [11]): 0; Plant response rating, Ragweed (ragweed; [12]): 30; Plant response rating, Ragweed (ragweed; [13]): 20; Ragweed plant response rating (ragweed; [14]): 40; Plant response rating, Ryegrass, Italian (ryegrass, Italian; [11]): 20; Plant response rating, Ryegrass, Italian (ryegrass, Italian; [12]): 40; Plant response rating, Ryegrass, Italian (ryegrass, Italian; [13]): 20; Ryegrass, Italian plant response rating (ryegrass, Italian; [14]): 60; Plant response rating, Galium (galium; [15]): 30; Plant response rating, Galium (galium; [16]): 40
